The results in this text go back to patent US8609858B2, “Spiro derivatives of parthenin as novel anticancer agents” (Council of Scientific & Industrial Research, priority 2008, dated 2013).

The test system of one data set is DU-145. The data set can be described thus: In vitro cytotoxicity screening (sulphodamine B dye), DU-145. The format is cell-based. The note with it: Homo sapiens; DU-145 prostate cancer cell line. Here is the method: (§1) Cells at sub confluent stage were harvested from the flask by treatment with trypsin (0.5% in PBS containing 0.02% EDTA) for determination of cytotoxicity. […] The cell suspensions of required cell density were prepared in complete growth medium with gentamycin (50 μg/ml) for determination of cytotoxicity. The cells (100 μl/well) were inoculated in 96 well tissue culture plates. The cells were allowed to grow for 24 hrs temperature of 37° C. and in a humidified atmosphere of 5% CO2 in air. Stock solution of (20 mM) of test material was prepared in DMSO. The stock solution was serially diluted with complete growth medium containing 50 μg/ml of gentamycin to obtain […] working test solutions of 1., 2, 5, 10, 50 and 100 μM.
(§2) The media were supplemented with FCS (10%), penicillin (100 Units/ml), streptomycin (100 μg/ml) and glutamine (2 mM) and cells were grown in CO2 incubator (Hera cell, Heraeus, USA) at 37° C. with 90% humidity and 5% CO2.

Another data set concerns SW-620. The data set can be described thus: In vitro cytotoxicity screening (sulphodamine B dye), SW-620. The format is cell-based. The note with it: Homo sapiens; SW-620 colon cancer cell line. Here is the method: as §1, §2
In another data set the test system is PC-3. The data set is described as follows: In vitro cytotoxicity screening (sulphodamine B dye), PC-3. It counts as cell-based. The note with it: Homo sapiens; PC-3 prostate cancer cell line. On the procedure: as §1, §2

The term melting point denotes the temperature of the solid-liquid transition. Regarding `COc1ccc(N2CC23C(=O)O[C@@H]2[C@H]3CC[C@H](C)[C@]3(O)C=CC(=O)[C@@]23C)cc1` (stereo partly shown), the melting point was in the range of 245 to 247 °C.
Same read-out and setting: under `Cc1ccc(N2CC23C(=O)O[C@@H]2[C@H]3CC[C@H](C)[C@]3(O)C=CC(=O)[C@@]23C)cc1` (stereo partly shown) stands 241 to 242 °C.
The IC50 is the concentration that gives 50% inhibition. Low values mean higher potency, high ones lower potency. For the compound `COc1ccc(C2=NOC3(C2)C(=O)O[C@@H]2[C@H]3CC[C@H](C)[C@]3(O)C=CC(=O)[C@@]23C)cc1` (stereo partly shown) [Compound -1], the IC50 came out at 20 µM in the data set on DU-145, 41 µM with SW-620 and 35 µM with PC-3.
`C[C@H]1CC[C@@H]2[C@@H](OC(=O)C23CC(c2ccc(Cl)cc2)=NO3)[C@]2(C)C(=O)C=C[C@@]12O` (stereo partly shown) [Compound -2] gave a melting point of 138.2 °C. The IC50 in the data set on DU-145 amounted to 43 µM. Besides, inhibition in the data set on SW-620 was half-maximal at 51 µM (IC50). In addition, in the data set on PC-3, the concentration for half-maximal inhibition (IC50) was 49 µM.
Regarding `C[C@H]1CC[C@@H]2[C@@H](OC(=O)C23CC(c2ccc(N(C)C)cc2)=NO3)[C@]2(C)C(=O)C=C[C@@]12O` (stereo partly shown) [Compound -4], the midpoint of inhibition in the data set with PC-3, the IC50, lay at 6.33 µM.
In turn, `C[C@H]1CC[C@@H]2[C@@H](OC(=O)C23CC(c2ccc(O)cc2)=NO3)[C@]2(C)C(=O)C=C[C@@]12O` (stereo partly shown) [Compound -5] displayed a melting point of 129.2 °C. The same compound came in with an IC50 in the data set on DU-145 of 93 µM. Inhibition with SW-620 was half-maximal at 89 µM (IC50).
Turning to `C[C@H]1CC[C@@H]2[C@@H](OC(=O)C23CC(c2cccc([N+](=O)[O-])c2)=NO3)[C@]2(C)C(=O)C=C[C@@]12O` (stereo partly shown) [Compound -11], the IC50 in the data set on DU-145 was found to be 51 µM; with SW-620 it was 49 µM; in the data set on PC-3 it was 55 µM.
In the same order, the values of `C[C@H]1CC[C@@H]2[C@@H](OC(=O)C23CC(c2cccs2)=NO3)[C@]2(C)C(=O)C=C[C@@]12O` (stereo partly shown) [Compound -12] are 19 µM, 34 µM and 29 µM.
`Cc1ccccc1C1=NOC2(C1)C(=O)O[C@@H]1[C@H]2CC[C@H](C)[C@]2(O)C=CC(=O)[C@@]12C` (stereo partly shown) [Compound -13] returned a melting point of 277 °C. In addition, 12 µM corresponded to half-maximal inhibition in the data set with DU-145 (IC50). In addition, the IC50 in the data set on SW-620 was determined as 5 µM. This compound gave an IC50 with PC-3 of 10 µM.
In turn, `Cc1cccc(C2=NOC3(C2)C(=O)OC2C3CC[C@H](C)[C@]3(O)C=CC(=O)[C@@]23C)c1` (stereo partly shown) [Compound -14] came in with an IC50 in the data set with PC-3 of 66.6 µM.
`C[C@H]1CC[C@@H]2[C@@H](OC(=O)C23CC(c2ccc(F)cc2)=NO3)[C@]2(C)C(=O)C=C[C@@]12O` (stereo partly shown) [Compound -15] gave a melting point of 193 °C. Moreover, inhibition in the data set with DU-145 was half-maximal at 13 µM (IC50). Besides, the IC50 with SW-620 amounted to 3.6 µM. This compound came in with an IC50 with PC-3 of 27 µM.
Turning to `C[C@H]1CC[C@@H]2[C@@H](OC(=O)C23CC(c2ccc(C#N)cc2)=NO3)[C@]2(C)C(=O)C=C[C@@]12O` (stereo partly shown) [Compound -16], the melting point is 147 °C. Besides, inhibition in the data set on DU-145 was half-maximal at 26 µM (IC50). For the same compound, in the data set on SW-620, the half-maximal inhibitory concentration (IC50) worked out at 53 µM. Also, in the data set on PC-3, inhibition was half-maximal at 32 µM (IC50).
In the same order, the values of `C[C@H]1CC[C@@H]2[C@@H](OC(=O)C23CC(c2ccc(Cl)cc2)N(c2ccccc2)O3)[C@]2(C)C(=O)C=C[C@@]12O` (stereo partly shown) [Compound -18] are 183 °C, 7 µM, 7.5 µM and 7.8 µM.
In the same order, the values of `Cc1ccccc1C1CC2(ON1c1ccccc1)C(=O)O[C@@H]1[C@H]2CC[C@H](C)[C@]2(O)C=CC(=O)[C@@]12C` (stereo partly shown) [Compound -19] are 181 °C, 5.6 µM, 6 µM and 6.4 µM.
As to `C[C@H]1CC[C@@H]2[C@@H](OC(=O)C23CC(c2ccc(Br)cc2)N(c2ccccc2)O3)[C@]2(C)C(=O)C=C[C@@]12O` (stereo partly shown) [Compound -20], the melting point stood at 185 °C. The IC50 with DU-145 was 6.3 µM. For the same compound, the IC50 in the data set with SW-620 was found to be 6.7 µM. Moreover, the midpoint of inhibition with PC-3, the IC50, lay at 5.8 µM.
As to `Cc1ccc(C2CC3(ON2c2ccccc2)C(=O)O[C@@H]2[C@H]3CC[C@H](C)[C@]3(O)C=CC(=O)[C@@]23C)cc1` (stereo partly shown) [Compound -21], the melting point came out at 114 °C. In addition, the IC50 in the data set with DU-145 worked out at 8.1 µM. For the same compound, inhibition in the data set with SW-620 was half-maximal at 8.7 µM (IC50). This compound had an IC50 in the data set on PC-3 of 8.5 µM.
In the case of `C[C@H]1CC[C@@H]2[C@@H](OC(=O)C23CC(c2ccccc2)N(c2ccccc2)O3)[C@]2(C)C(=O)C=C[C@@]12O` (stereo partly shown) [Compound -23], the melting point was found to be 170 °C. In the data set with DU-145, this compound returned an IC50 of 5.6 µM. Moreover, in the data set with SW-620, the IC50 stood at 5.8 µM. The compound also had an IC50 with PC-3 of 5.7 µM.
In the same order, the values of `C[C@H]1CC[C@@H]2[C@@H](OC(=O)C23CC(c2ccc(F)cc2)N(c2ccccc2)O3)[C@]2(C)C(=O)C=C[C@@]12O` (stereo partly shown) [Compound -24] are 154 °C, 6.4 µM, 7.3 µM and 5.7 µM.
In the same order, the values of `COc1ccc(C2CC3(ON2c2ccccc2)C(=O)O[C@@H]2[C@H]3CC[C@H](C)[C@]3(O)C=CC(=O)[C@@]23C)cc1Br` (stereo partly shown) [Compound -25] are 96 °C, 6.3 µM, 6.8 µM and 5.7 µM.
`C[C@H]1CC[C@@H]2[C@@H](OC(=O)C23CC(c2ccc(C#N)cc2)N(c2ccccc2)O3)[C@]2(C)C(=O)C=C[C@@]12O` (stereo partly shown) [Compound -26]: the melting point was 116 °C. Also, 5 µM corresponded to half-maximal inhibition in the data set on DU-145 (IC50). The half-maximal inhibitory concentration (IC50) with SW-620 was 4.8 µM. The compound further had an IC50 in the data set on PC-3 of 4.8 µM.
The compound `COc1ccc(Br)cc1C1CC2(ON1c1ccccc1)C(=O)O[C@@H]1[C@H]2CC[C@H](C)[C@]2(O)C=CC(=O)[C@@]12C` (stereo partly shown) [Compound -27] had a melting point of 197 °C. 7.8 µM corresponded to half-maximal inhibition in the data set on DU-145 (IC50). Besides, in the data set on SW-620, half-maximal inhibition (IC50) required 6.1 µM. Also, the IC50 in the data set on PC-3 worked out at 8.2 µM.
The corresponding values for `COc1ccc(C2CC3(ON2c2ccccc2)C(=O)O[C@@H]2[C@H]3CC[C@H](C)[C@]3(O)C=CC(=O)[C@@]23C)c(OC)c1` (stereo partly shown) [Compound -28] are 99 °C, 11 µM, 7.5 µM and 11 µM.
Compound `COc1cc(C2CC3(ON2c2ccccc2)C(=O)O[C@@H]2[C@H]3CC[C@H](C)[C@]3(O)C=CC(=O)[C@@]23C)cc(OC)c1OC` (stereo partly shown) [Compound -29] returned a melting point of 119 °C. Moreover, the IC50 with DU-145 was 5.6 µM. Further, the IC50 in the data set with SW-620 was found to be 5.7 µM. The same compound gave an IC50 with PC-3 of 8.6 µM.
`Cc1cc(C2CC3(ON2c2ccccc2)C(=O)O[C@@H]2[C@H]3CC[C@H](C)[C@]3(O)C=CC(=O)[C@@]23C)cc(C)c1O` (stereo partly shown) [Compound -30]: the melting point was 108 °C.
As for `C[C@H]1CC[C@@H]2[C@@H](OC(=O)C23CC(c2cccc(Cl)c2)N(c2ccccc2)O3)[C@]2(C)C(=O)C=C[C@@]12O` (stereo partly shown) [Compound -31], the melting point was found to be 180 °C. In the data set on DU-145, the midpoint of inhibition, the IC50, lay at 7.4 µM. Inhibition in the data set on SW-620 was half-maximal at 6.1 µM (IC50). In the data set on PC-3, this compound came in with an IC50 of 8.2 µM.
The corresponding values for `C[C@H]1CC[C@@H]2[C@@H](OC(=O)C23CC(c2ccccc2[N+](=O)[O-])C(c2ccccc2)O3)[C@]2(C)C(=O)C=C[C@@]12O` (stereo partly shown) [Compound -32] are 158 °C, 28 µM, 13 µM and 8.4 µM.
In the same order, the values of `COc1ccccc1C1CC2(ON1c1ccccc1)C(=O)O[C@@H]1[C@H]2CC[C@H](C)[C@]2(O)C=CC(=O)[C@@]12C` (stereo partly shown) [Compound -33] are 111 °C, 91 µM, 53 µM and 81 µM.
In the same order, the values of `C[C@H]1CC[C@@H]2[C@@H](OC(=O)C23CN3c2ccccc2)[C@]2(C)C(=O)C=C[C@@]12O` (stereo partly shown) [Compound -34] are 245 to 247 °C, 31.4 µM, 87.7 µM and 10.6 µM.
Consider `C[C@H]1CC[C@@H]2[C@@H](OC(=O)C23CN3c2cccc(Cl)c2)[C@]2(C)C(=O)C=C[C@@]12O` (stereo partly shown) [Compound -35], for which the results for the IC50 in the data set with DU-145, in the data set with SW-620 and in the data set on PC-3 were 39.5 µM, 48.4 µM and 86.1 µM, respectively.
`COc1ccccc1N1CC12C(=O)O[C@@H]1[C@H]2CC[C@H](C)[C@]2(O)C=CC(=O)[C@@]12C` (stereo partly shown) [Compound -37]: the figures for the IC50 in the data set with SW-620 and with PC-3 were 47.3 µM and 52 µM, respectively.
Consider `Cc1cccc(N2CC23C(=O)O[C@@H]2[C@H]3CC[C@H](C)[C@@]3(O)C=CC(=O)[C@@]23C)c1` (stereo partly shown) [Compound -38], for which the IC50 is 62.5 µM in the data set on DU-145, 15 µM in the data set on SW-620 and 61.5 µM with PC-3.
As for `C[C@H]1CC[C@@H]2[C@@H](OC(=O)C23CN3c2cccc([N+](=O)[O-])c2)[C@]2(C)C(=O)C=C[C@@]12O` (stereo partly shown) [Compound -40], the melting point was in the range of 241 to 242 °C. Moreover, inhibition in the data set on SW-620 was half-maximal at 61 µM (IC50). The IC50 in the data set on PC-3 amounted to 10.1 µM.
For the compound `Cc1ccccc1N1CC12C(=O)O[C@@H]1[C@H]2CC[C@H](C)[C@]2(O)C=CC(=O)[C@@]12C` (stereo partly shown) [Compound -43], the results for the IC50 in the data set with SW-620 and with PC-3 were 22 µM and 12.5 µM, respectively.
Compound `COc1ccc(C2=NOC3(C2)C(=O)O[C@@H]2[C@H]3CC[C@H](C)[C@]3(O)C=CC(=O)[C@@]23C)cc1OC` (stereo partly shown) [Compound -80] gave a melting point of 151 °C. This compound displayed a concentration for half-maximal inhibition (IC50) in the data set with DU-145 of 84 µM. The compound further yielded an IC50 in the data set with SW-620 of 86 µM.
